Reference: patent EP0866074A1, “NOVEL NK374186 ANALOGUES OR PHARMACOLOGICALLY ACCEPTABLE SALTS THEREOF” (NIPPON KAYAKU KABUSHIKI KAISHA, priority 1995, dated 1996)
Values after ≈ are worked out from the molar mass of the structure shown.

Tests used:
[1] = system: cell line A2780 derived from human ovarian cancer; assay: Suppression of cancer cell proliferation (MTT method); assay type: cell-based
Method: Cells were cultured in an RPMI culture medium supplemented with 10 % calf fetus serum in the presence of 5 % CO2 at 37 °C. The cells were inoculated and cultured in a 96-well plate for one day, followed by addition of one of the pharmaceutical compounds. The cells were treated with the compounds for 3 days, and the effects were assessed by the proliferation-suppressed MTT method. The activities of the compounds on the suppression of the proliferation of Cancer cells are shown below. The cancer cells were of a cell line A2780 derived from human ovarian cancer.

graft vs host reaction = assay: Graft vs host reaction (GVH), spleen weight method; assay type: in vivo, mouse; settings: for Spleen weight/body weight: spleen weighed 7 days after transplantation, BDF mouse; for Index: relative to Untreated = 1.00
Method: The spleen weight method by Fords, et al. [W.L. Ford et al., Handbook of Experimental Immunology 30, D.M. Weir, ed., Blackwell Scientific Publications, 1978, pp. 1] was followed. Spleen cells of 5×10^6, separated from a C57BL/6 mouse (8 weeks of age, male) as a donor, were transplanted peritoneally in a BDF mouse (7 weeks of age, male) as a recipient. Simultaneously, NK374186, a control agent or a solvent control (0.25 % gum arabic) was injected subcutaneously in the dorsal skin of the BDF mouse. The NK374186 and the control agent were preliminarily dissolved in 0.25 % gum arabic. Furthermore, on day 1 and day 2, the same administration was conducted, and 7 days after the transplantation, the spleen was weighed.

Human peripheral T cells = assay: Blastoid transformation via OKT-3 (3H-thymidine incorporation); assay type: cell-based; settings: 2 ng/ml OKT-3 antibody, 72-hr cultivation
Method: For cultivation, RPMI 1640 medium supplemented with 10 % calf fetus serum, 25 mM HEPS buffer, 100 µg/ml streptomycin […] and 100 units/ml penicillin G in a 96-well flat-bottom microplate (coaster) was used. As a mitogen, 2 ng/ml OKT-3 antibody was used.
Human peripheral T cells Were collected from blood drawn with heparin by the density-gradient centrifugation method. 200,000 cells and test compounds at individual concentrations were added to each well to a total volume of 0.2 ml, for 72-hr cultivation. Eight hours before termination of the cultivation, 37 kBq ^3H - thymidine was added to determine the incorporation thereof into the cells. The effects were evaluated on the basis of the ratio of the incorporated ^3H - thymidine in the groups with addition of the test compounds to the incorporated ^3H - thymidine in the control group (Japanese Immunology Association, Methods for Experiment Immunology, pp. 2267 - 2276).

SMILES: CCCCCCCCCCCCCC1OC(=O)C(COC(C)=O)NC(=O)C(C(C)OP(=O)(O)O)NC(=O)C(C(C)C)NC(=O)C(C)C(O)C1C (stereo not shown) [NK374186P]
- IC50 ([1]; Homo sapiens, 72 h, A2780 cells, treated for 3 days, MTT method): 33 µg/mL (≈ 44.8 µM)
- activities on the suppression of the proliferation of the cancer cells ([1]; result in words, summary of Table 1): have activities on the suppression of the proliferation of the cancer cells
- Spleen weight/body weight (graft vs host reaction; Dose 0.5 mg/kg subcutaneously on day 0, 1 and 2): 10.01 X10^-3
- Index (graft vs host reaction; Dose 0.5 mg/kg): 2.07
- Spleen weight/body weight (graft vs host reaction; Dose 5.0 mg/kg subcutaneously on day 0, 1 and 2): 11.45 X10^-3
- Index (graft vs host reaction; Dose 5.0 mg/kg): 2.37
- Spleen weight/body weight (graft vs host reaction; Dose 50.0 mg/kg subcutaneously on day 0, 1 and 2): 12.00 X10^-3
- Index (graft vs host reaction; Dose 50.0 mg/kg): 2.48
- effect on GVH (graft vs host reaction; result in words, summary of Table 3, ratio of spleen weight to body weight increases depending on the dose): significant GVH suppression
- ratio of the incorporated 3H-thymidine in the groups with addition of the test compounds to the control group (Human peripheral T cells; Concentration 0.03 (unit not given)): 99.6
- ratio of the incorporated 3H-thymidine in the groups with addition of the test compounds to the control group (Human peripheral T cells; Concentration 0.1 (unit not given)): 100.6
- ratio of the incorporated 3H-thymidine in the groups with addition of the test compounds to the control group (Human peripheral T cells; Concentration 0.3 (unit not given)): 102.6
- ratio of the incorporated 3H-thymidine in the groups with addition of the test compounds to the control group (Human peripheral T cells; Concentration 1.0 (unit not given)): 119.7
- ratio of the incorporated 3H-thymidine in the groups with addition of the test compounds to the control group (Human peripheral T cells; Concentration 3.0 (unit not given)): 131.4
- ratio of the incorporated 3H-thymidine in the groups with addition of the test compounds to the control group (Human peripheral T cells; Concentration 10.0 (unit not given)): 97.7
- ratio of the incorporated 3H-thymidine in the groups with addition of the test compounds to the control group (Human peripheral T cells; Concentration 30.0 (unit not given)): 69.3
